Source: patent publication US6313376A, “Maize aquaporins and uses thereof” (Pioneer Hi-Bred International, Inc., priority 1999, dated 2001)

Assays:
[1] = system: ZmPIP2; test: Osmotic water permeability assay, water channel activity of ZmPIP2 in the presence of cAMP agonists or phosphatase inhibitor; format: cell-based, Zea mays; details: cAMP agonists to activate cellular PKA, or protein phosphatase inhibitor
Method: (§1) Xenopus laevis oocytes were prepared and injected as previously described (Daniels et al., 1996). The osmotic water permeability assay was conducted as previously described (Weig et al., 1997).
A number of studies indicate that the activity of aquaporins may be regulated by phosphorylation. For instance, -TIP, a seed specific vacuolar protein from bean, is phosphorylated in vivo and in vitro and the phosphorylation regulates its water channel activity in Xenopus oocytes (Maurel et al., 1993). […] Water channel activity of ZmPIP2 was tested in the presence of (1) cAMP agonists (8-bromoadenosine 3', 5'-cyclic monophosphate, forksolin and 3-isobutyl-1-methylxanthine) to increase the cytosolic cAMP concentration and activate cellular PKA and (2) protein phosphatase inhibitor okadeic acid.

[2] = biological target: T1, ZmPIP3 (Zea mays, UniProt Q9XF58); test: Osmotic water permeability assay (Xenopus oocyte swelling), inhibition of water transport through ZmPIP3; format: cell-based
T1 construct: plasma membrane swelling assay; insert borders and tag not described
T1 sequence (Q9XF58 1-284): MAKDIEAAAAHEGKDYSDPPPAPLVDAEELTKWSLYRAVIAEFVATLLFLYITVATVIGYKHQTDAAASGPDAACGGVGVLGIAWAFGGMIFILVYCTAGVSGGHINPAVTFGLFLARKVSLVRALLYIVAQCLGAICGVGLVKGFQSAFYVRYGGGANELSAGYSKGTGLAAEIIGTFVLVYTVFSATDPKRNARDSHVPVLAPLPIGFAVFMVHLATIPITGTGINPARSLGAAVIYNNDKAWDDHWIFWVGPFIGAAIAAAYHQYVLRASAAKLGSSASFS
Method: as §1
(§2) The biological activity of aquaporins is usually determined with Xenopus oocyte swelling assays (Maurel et al, 1993). MIP cRNA is injected into oocytes and after a 3-day incubation the oocytes are moved to a hypotonic medium. If water channel proteins are present in the plasma membrane, the oocytes swell and burst much faster than the control oocytes. […] The osmotic water permeability coefficient (Pf) of the oocyte membrane increased 8-fold over the control. Mercurial compounds are characteristic inhibitors of many water-channel proteins. Water transport through ZmPIP3 is inhibited 50% by 1 mM mercuric chloride and this inhibition is reversed by the reducing agent -mercaptoethanol.

[3] = system: Xenopus laevis oocytes; test: Osmotic water permeability assay of cRNA-injected oocytes (Pf of the oocyte membrane); format: cell-based; details: cRNA-injected oocytes moved to hypotonic medium after 3-day incubation; versus control oocytes
Method: as §1, §2

[4] = system: Xenopus laevis oocytes; test: Radiolabeled solute uptake assay in ZmPIP2-expressing oocytes; format: cell-based; details: 1 mM solute, 21° C., 0, 15 and 30 min
Method: Two to three days after water or mRNA injection, groups of 5 oocytes were incubated at 21° C. in […] of Barth's solution containing 0.1 to 0.5 MBq/ml of the radiolabeled solutes ([^14 C]glycerol, […]; [^14 C]choline, 2.0 GBq/mmol; [^14 C]ethanol, 0.144 GBq/mmol; [^14 C]urea, 2.0 GBq/mmol or [^14 C]labeled amino acid mixture without methionine, 1.85 MBq/ml). Nonradioactive solutes were added to give a 1 mM final concentration. After 0, 15 and 30 min, the oocytes were washed rapidly three times in ice-cold Barth's solution, and individual oocytes were dissolved in 5% SDS for scintillation counting.
Although many MIP proteins are aquaporin, some of them can transport small neutral solutes, exclusively or in addition to water. For instance, tobacco NtTIPa and NtAQP1 transport glycerol in addition to water (Gerbeau et al., 1999), whilst the bacterial GIpF is a selective glycerol facilitator. Transport essays were performed in ZmPIP2-expressing oocytes with a series of labeled solutes including glycerol, urea, ethanol, choline and amino acids.

For `CC(C)Cn1c(=O)n(C)c(=O)c2[nH]cnc21` [3-isobutyl-1-methylxanthine], the “effect on Pf of ZmPIP2-expressing oocytes” value (from here on “effect on Pf”) [1] was “None of these treatments affected the Pf”.

`Nc1ncnc2c1nc(Br)n2[C@@H]1O[C@@H]2COP(=O)(O)O[C@H]2[C@H]1O` [8-bromoadenosine 3', 5'-cyclic monophosphate] was tested, and the “effect on Pf” value [1] was “None of these treatments affected the Pf”.

`OCCS` [-mercaptoethanol] was tested, and the “reversal of mercuric chloride inhibition of ZmPIP3 water transport” value ([2]; reducing agent added after 1 mM mercuric chloride inhibition) was “reversed”.

In the case of `C=C[C@@]1(C)CC(=O)[C@]2(O)[C@@]3(C)[C@@H](O)CCC(C)(C)[C@@H]3[C@H](O)[C@H](OC(C)=O)[C@@]2(C)O1` [forksolin], the “effect on Pf” value [1] is reported as “None of these treatments affected the Pf”.

For `[Cl][Hg][Cl]` [mercuric chloride], the “inhibition of water transport through ZmPIP3” value ([2]; 1 mM mercuric chloride, ZmPIP3 cRNA-injected Xenopus oocytes) was 50%.

With okadeic acid the “effect on Pf” value [1] was “None of these treatments affected the Pf”.

B1: ZmPIP3: maize aquaporin; polypeptide of SEQ ID NO: 4, expressed from cRNA in Xenopus oocytes (protein)
chain: T1 sequence (Q9XF58 1-284)
B1 was tested, and the “increase of osmotic water permeability coefficient (Pf) of the oocyte membrane over the control” value [3] was 8 fold.

B2: ZmPIP2: maize aquaporin designation; polypeptide of SEQ ID NO: 2, expressed from cRNA in Xenopus oocytes (protein)
chain: MEGKEEDVRLGANKFSERQPIGTAAQGAADDKDYKEPPPAPLFEPGELKSWSFYRAGIAEFVATFLFLYITILTVMGVSKSTSKCATVGIQGIAWSFGGMIFALVYCTAGISGGHINPAVTFGLFLARKLSLTRALFYIIMQCLGAICGAGVVKGFQQGLYMGNGGGANVVAPGYTKGDGLGAEIVGTFILVYTVFSATDAKRNARDSHVPILAPLPIGFAVFLVHLATIPITGTGINPARSLGAAIIYNRDHAWNDHWIFWVGPFIGAALAAIYHQVIIRAIPFKSR
For B2, the “transport of labeled solutes (glycerol, urea, ethanol, choline, amino acids) versus water-injected oocytes” value [4] was “None of the solutes tested were preferentially transported”.

B3: AtRD28: plasma membrane AtRD28 aquaporin (Daniels et al., 1994), positive control in oocytes (protein, UniProt P30302 1-285, looked up)
Aquaporin PIP2-3: MAKDVEGPDGFQTRDYEDPPPTPFFDAEELTKWSLYRAVIAEFVATLLFLYVTVLTVIGYKIQSDTKAGGVDCGGVGILGIAWAFGGMIFILVYCTAGISGGHINPAVTFGLFLARKVSLIRAVLYMVAQCLGAICGVGFVKAFQSSHYVNYGGGANFLADGYNTGTGLAAEIIGTFVLVYTVFSATDPKRNARDSHVPVLAPLPIGFAVFMVHLATIPITGTGINPARSFGAAVIFNKSKPWDDHWIFWVGPFIGATIAAFYHQFVLRASGSKSLGSFRSAANV
With B3 the “increase of osmotic water permeability coefficient (Pf) of the oocyte membrane over the control” value [3] was 8 fold.
